# Test results as given in ChEMBL document CHEMBL3414522, “Design, synthesis, and biological evaluation of novel matrix metalloproteinase inhibitors as potent antihemorrhagic agents: from hit identification to an optimized lead” (J Med Chem, 2015).
# Assays:
# [1] = in vitro; settings: human, liver microsomes
# [2] = in vitro; settings: rat, liver microsomes
# [3] = in vitro; settings: mouse, liver microsomes
# [4] = Apparent permeability from apical to basolateral side in human Caco2 cells at 2 uM after 120 mins by LC-MS/MS analysis; assay type: ADME, cell-based; settings: caco-2, 2 h
"remaining at 20 min, 1 µM [1] [%]","remaining at 20 min, 1 µM [2] [%]","remaining at 20 min, 1 µM [3] [%]",Papp [4] [×10⁻⁶ cm/s],SMILES
92.1,95.6,87.2,,O=C(NO)C1(S(=O)(=O)c2ccc(Oc3ccc(OC(F)(F)F)cc3)cc2)CCC2(CCNCC2)C1 (centres undefined)
91.1,99.8,97.5,,CNC(=O)c1ccc(Oc2ccc(S(=O)(=O)C3(C(=O)NO)CCC4(CCNCC4)C3)cc2)cc1 (centres undefined)
93.5,98.1,98,0.00016,CNC(=O)c1ccc(Oc2ccc(S(=O)(=O)[C@]3(C(=O)NO)CCC4(CCNCC4)C3)cc2)cc1
97,97.4,89.6,0.00059,CNC(=O)c1ccc(Oc2ccc(S(=O)(=O)[C@@]3(C(=O)NO)CCC4(CCNCC4)C3)cc2)cc1
